Legend:
[1] = organism: Cavia porcellus; experiment: Compound was tested for the ability to relax histamine induced contraction of isolated trachea; type: functional
[2] = biological target: Beta-2 adrenergic receptor (Homo sapiens, UniProt P07550)
Description: Compound was tested for its binding affinity to human Beta-2 adrenergic receptor by using the radioligand [3H]CGP-12177

[3] = biological target: Beta-1 adrenergic receptor (Homo sapiens, UniProt P08588)
Sequence of Beta-1 adrenergic receptor (P08588 whole entry): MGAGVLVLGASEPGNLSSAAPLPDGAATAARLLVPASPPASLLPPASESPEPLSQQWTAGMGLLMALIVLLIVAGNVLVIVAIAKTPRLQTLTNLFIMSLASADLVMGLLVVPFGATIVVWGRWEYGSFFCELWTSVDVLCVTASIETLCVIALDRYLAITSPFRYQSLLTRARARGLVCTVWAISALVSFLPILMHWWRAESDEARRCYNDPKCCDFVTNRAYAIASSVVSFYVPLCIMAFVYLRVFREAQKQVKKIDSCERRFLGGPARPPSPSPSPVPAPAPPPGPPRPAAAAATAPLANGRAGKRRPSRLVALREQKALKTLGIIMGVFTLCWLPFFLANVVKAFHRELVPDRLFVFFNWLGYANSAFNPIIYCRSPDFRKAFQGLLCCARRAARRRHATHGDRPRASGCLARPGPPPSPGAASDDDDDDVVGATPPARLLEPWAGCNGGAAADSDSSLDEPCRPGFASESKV
Description: Compound was tested for its binding affinity to human Beta-1 adrenergic receptor by using the radioligand [3H]CGP-12177

Sequence of Beta-2 adrenergic receptor (P07550 whole entry): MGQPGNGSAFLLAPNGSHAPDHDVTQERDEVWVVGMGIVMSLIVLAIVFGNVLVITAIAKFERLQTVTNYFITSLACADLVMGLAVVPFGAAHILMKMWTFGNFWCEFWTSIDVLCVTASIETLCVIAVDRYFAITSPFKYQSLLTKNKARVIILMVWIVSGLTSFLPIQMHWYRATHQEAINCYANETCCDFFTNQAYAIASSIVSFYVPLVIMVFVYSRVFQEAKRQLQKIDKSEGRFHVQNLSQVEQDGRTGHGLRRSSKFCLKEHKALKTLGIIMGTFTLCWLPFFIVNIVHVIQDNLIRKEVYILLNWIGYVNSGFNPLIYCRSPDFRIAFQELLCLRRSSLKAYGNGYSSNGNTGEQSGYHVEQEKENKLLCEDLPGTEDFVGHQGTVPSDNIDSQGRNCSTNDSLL

Structure (SMILES) | pD2 [1] | Kd [2] | Kd [3]
CNCC(O)c1ccc(O)c2nc(O)sc12 (centres undefined) | 10.6 | 51 nM | 120 nM
CNCC(O)c1ccc(OC)c2c1sc(=O)n2C (centres undefined) | 7.08 |  | 
